The values below come from patent publication US7473790B2 (Pfizer Inc., priority 2003, dated 2009).

In the first experiment the target is T1, HCV polymerase (Hepatitis C virus genotype 1b, UniProt P26663).
T1 construct: 2.5 pmoles (0.15 μg) HCV polymerase protein in a final volume of 75 μL
T1 sequence (P26663 2420-3010): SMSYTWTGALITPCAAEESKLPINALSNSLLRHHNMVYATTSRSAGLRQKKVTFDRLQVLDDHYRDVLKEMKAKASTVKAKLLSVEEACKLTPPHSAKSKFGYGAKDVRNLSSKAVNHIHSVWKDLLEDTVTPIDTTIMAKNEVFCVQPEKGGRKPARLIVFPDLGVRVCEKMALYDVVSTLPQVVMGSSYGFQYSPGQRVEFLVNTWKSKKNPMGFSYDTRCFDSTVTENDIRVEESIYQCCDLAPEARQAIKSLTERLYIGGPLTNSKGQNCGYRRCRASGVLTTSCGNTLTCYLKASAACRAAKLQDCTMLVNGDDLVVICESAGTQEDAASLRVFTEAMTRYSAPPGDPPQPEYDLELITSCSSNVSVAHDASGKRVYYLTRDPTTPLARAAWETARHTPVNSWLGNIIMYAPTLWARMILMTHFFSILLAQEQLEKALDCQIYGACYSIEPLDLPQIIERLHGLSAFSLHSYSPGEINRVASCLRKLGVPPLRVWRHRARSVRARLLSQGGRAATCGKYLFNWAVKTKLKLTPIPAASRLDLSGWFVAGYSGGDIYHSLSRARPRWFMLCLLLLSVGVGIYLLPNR
As to the kind of experiment: HCV polymerase primer/template-directed transcription assay (32P-GTP incorporation, filter binding). In kind it is biochemical. To be noted: @ 20 uM compound; given where IC50 was impractical to calculate; read-out: percent inhibition. Summed up:
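IC50s come from triplicate cpm, refit with an enzyme-concentration (30 nM) correction when under 200 nM. Reactions ran 30 min at 30° C in Tris pH 7.2 with MgCl2, 1 μM GTP spiked with α-32P-GTP, biotin-dG12 primer and poly(rC)300 template, with 1% DMSO. Incorporated label was collected on DE filtermats and counted.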
As a reminder, the inhibition is the relative decrease from the control value, in per cent. On to `CC(C)Oc1ccc(CCC2(C3CCCC3)CC(O)=C(Cc3nc4ccccc4n3C)C(=O)O2)cc1Cl` (stereo not shown) [B(27), 6-[2-(3-Chloro-4-isopropoxy-phenyl)-ethyl]-6-cyclopentyl-4-hydroxy-3-(1-methyl-1H-benzoimidazol-2-ylmethyl)-5,6-dihydro-pyran-2-one], for which the inhibition at 20 µM is 47%.

The same experiment, now with this note: recombinant HCV polymerase; 30 minutes at 30° C.; concentration giving 50% inhibition of polymerase-directed transcription; read-out: IC50.
One may read the IC50 as the concentration that gives 50% inhibition. Take `COc1ccc(CCC2(C3CCCC3)CC(O)=C(Cc3ccc(-n4cncn4)cc3)C(=O)O2)cc1Cl` (stereo not shown) [B(25), 6-[2-(3-Chloro-4-methoxy-phenyl)-ethyl]-6-cyclopentyl-4-hydroxy-3-(4-[1,2,4]triazol-1-yl-benzyl)-5,6-dihydro-pyran-2-one]: the IC50 amounted to 240 nM. Same read-out and setting: as for `Cn1c(CC2=C(O)CC(CCc3ccc(OCC4CC4)c(Cl)c3)(C3CCCC3)OC2=O)nc2ccccc21` (stereo not shown) [B(26), 6-[2-(3-Chloro-4-cyclopropylmethoxy-phenyl)-ethyl]-6-cyclopentyl-4-hydroxy-3-(1-methyl-1H-benzoimidazol-2-ylmethyl)-5,6-dihydro-pyran-2-one], the figure is 2300 nM; as for `Cc1cc(C)n2nc(CC3=C(O)CC(CCc4ccc(OCC5CC5)c(Cl)c4)(C4CCCC4)OC3=O)nc2n1` (stereo not shown) [B(28), 6-[2-(3-Chloro-4-cyclopropylmethoxy-phenyl)-ethyl]-6-cyclopentyl-3-(5,7-dimethyl-[1,2,4]triazolo[1,5-a]pyrimidin-2-ylmethyl)-4-hydroxy-5,6-dihydro-pyran-2-one], 11 nM. Consider `COc1ccc(CCC2(C3CCCC3)CC(O)=C(Cc3nn(C)cc3Cl)C(=O)O2)cc1Cl` (stereo not shown) [B(29), 6-[2-(3-Chloro-4-methoxy-phenyl)-ethyl]-3-(4-chloro-1-methyl-1H-pyrazol-3-ylmethyl)-6-cyclopentyl-4-hydroxy-5,6-dihydro-pyran-2-one], for which the IC50 came out at 220 nM. Still for that read-out and setting: as for `COc1ccc(CCC2(C3CCCC3)CC(O)=C(Cc3ncc[nH]3)C(=O)O2)cc1Cl` (stereo not shown) [B(30), 6-[2-(3-Chloro-4-methoxy-phenyl)-ethyl]-6-cyclopentyl-4-hydroxy-3-(1H-imidazol-2-ylmethyl)-5,6-dihydro-pyran-2-one], the figure is 2000 nM; as for `Cc1cc(C)n2nc(CC3=C(O)CC(CCc4ccc(OC(C)C)c(Cl)c4)(C4CCCC4)OC3=O)nc2n1` (stereo not shown) [B(31), 6-[2-(3-Chloro-4-isopropoxy-phenyl)-ethyl]-6-cyclopentyl-3-(5,7-dimethyl-[1,2,4]triazolo[1,5-a]pyrimidin-2-ylmethyl)-4-hydroxy-5,6-dihydro-pyran-2-one], 3 nM; as for `COc1cc(OC)c(CCC2(C3CCCC3)CC(O)=C(Cc3nn(C)cc3Cl)C(=O)O2)cc1Cl` (stereo not shown) [B(32), 6-[2-(5-Chloro-2,4-dimethoxy-phenyl)-ethyl]-3-(4-chloro-1-methyl-1H-pyrazol-3-ylmethyl)-6-cyclopentyl-4-hydroxy-5,6-dihydro-pyran-2-one], 70 nM. On the same count and under the same terms, then `Cc1cc(C)n2nc(CC3=C(O)CC(CCc4ccc(OCC5CC5)c(F)c4)(C4CCCC4)OC3=O)nc2n1` (stereo not shown) [B(33), 6-Cyclopentyl-6-[2-(4-cyclopropylmethoxy-3-fluoro-phenyl)-ethyl]-3-(5,7-dimethyl-[1,2,4]triazolo[1,5-a]pyrimidin-2-ylmethyl)-4-hydroxy-5,6-dihydro-pyran-2-one], with 136 nM; and `Cc1cc(C)n2nc(CC3=C(O)CC(CCc4ccc(OC(C)C)cc4)(C4CCCC4)OC3=O)nc2n1` (stereo not shown) [B(34)], with 30 nM. On the same count and under the same terms, as for `COc1cc(OC)c(CCC2(C3CCCC3)CC(O)=C(Cc3c[nH]c(C)n3)C(=O)O2)cc1Cl` (stereo not shown) [B(35), 6-[2-(5-Chloro-2,4-dimethoxy-phenyl)-ethyl]-6-cyclopentyl-4-hydroxy-3-(2-methyl-1H-imidazol-4-ylmethyl)-5,6-dihydro-pyran-2-one], the figure is 70 nM. With `Cc1cc(C)n2nc(CC3=C(O)CC(CCc4ccc5c(c4)OCCO5)(C4CCCC4)OC3=O)nc2n1` (stereo not shown) [B(36), 6-Cyclopentyl-6-[2-(2,3-dihydro-benzo[1,4]dioxin-6-yl)-ethyl]-3-(5,7-dimethyl-[1,2,4]triazolo[1,5-a]pyrimidin-2-ylmethyl)-4-hydroxy-5,6-dihydro-pyran-2-one], the IC50 came to 42 nM. Same read-out and setting: then `CCOc1c(Cl)cc(CCC2(C3CCCC3)CC(O)=C(Cc3nc4nc(C)cc(C)n4n3)C(=O)O2)cc1Cl` (stereo not shown) [B(37), 6-Cyclopentyl-6-[2-(3,5-dichloro-4-ethoxy-phenyl)-ethyl]-3-(5,7-dimethyl-[1,2,4]triazolo[1,5-a]pyrimidin-2-ylmethyl)-4-hydroxy-5,6-dihydro-pyran-2-one], with 8 nM; and `Cc1cc(C)n2nc(CC3=C(O)CC(CCc4ccc(Cl)c(Cl)c4)(C4CCCC4)OC3=O)nc2n1` (stereo not shown) [B(38), 6-Cyclopentyl-6-[2-(3,4-dichloro-phenyl)-ethyl]-3-(5,7-dimethyl-[1,2,4]triazolo[1,5-a]pyrimidin-2-ylmethyl)-4-hydroxy-5,6-dihydro-pyran-2-one], with 21 nM. Take `Cc1cc(C)n2nc(CC3=C(O)CC(CCCCC4CCCCC4)(C4CCCC4)OC3=O)nc2n1` (stereo not shown) [B(39), 6-(4-Cyclohexyl-butyl)-6-cyclopentyl-3-(5,7-dimethyl-[1,2,4]triazolo[1,5-a]pyrimidin-2-ylmethyl)-4-hydroxy-5,6-dihydro-pyran-2-one]: the IC50 came out at 29 nM. Same read-out and setting: then `Cc1cc(C)n2nc(CC3=C(O)CC(CCc4ccc5c(c4)OC(F)(F)C(F)(F)O5)(C4CCCC4)OC3=O)nc2n1` (stereo not shown) [B(40), 6-Cyclopentyl-3-(5,7-dimethyl-[1,2,4]triazolo[1,5-a]pyrimidin-2-ylmethyl)-4-hydroxy-6-[2-(2,2,3,3-tetrafluoro-2,3-dihydro-benzo[1,4]dioxin-6-yl)-ethyl]-5,6-dihydro-pyran-2-one], with 14 nM; and `CCCOc1ccc(CCC2(C3CCCC3)CC(O)=C(Cc3nc4nc(C)cc(C)n4n3)C(=O)O2)cc1` (stereo not shown) [B(41), 6-Cyclopentyl-3-(5,7-dimethyl-[1,2,4]triazolo[1,5-a]pyrimidin-2-ylmethyl)-4-hydroxy-6-[2-(4-propoxy-phenyl)-ethyl]-5,6-dihydro-pyran-2-one], with 120 nM. On the same count and under the same terms, then `Cc1cc(C)n2nc(CC3=C(O)CC(CCc4ccc(OCc5c(C)noc5C)cc4)(C4CCCC4)OC3=O)nc2n1` (stereo not shown) [B(42), 6-Cyclopentyl-6-{2-[4-(3,5-dimethyl-isoxazol-4-ylmethoxy)-phenyl]-ethyl}-3-(5,7-dimethyl-[1,2,4]triazolo[1,5-a]pyrimidin-2-ylmethyl)-4-hydroxy-5,6-dihydro-pyran-2-one], with 210 nM. For `COc1ccc(CCC2(C3CCCC3)CC(O)=C(Cc3nc4cc(Cl)ccc4n3C)C(=O)O2)cc1Cl` (stereo not shown) [B(43), 6-[2-(3-chloro-4-methoxyphenyl)ethyl]-3-[(5-chloro-1-methyl-1H-benzimidazol-2-yl)methyl]-6-cyclopentyl-4-hydroxy-5,6-dihydro-2H-pyran-2-one], the IC50 came to 360 nM.

Take `Cc1cc(C)n2nc(CC3=C(O)CC(CCc4ccc(C(C)C)c(Cl)c4)(C4CCCC4)OC3=O)nc2n1` (stereo not shown) [B(44), 6-[2-(3-chloro-4-isopropylphenyl)ethyl]-6-cyclopentyl-3-[(5,7-dimethyl[1,2,4]triazolo[1,5-a]pyrimidin-2-yl)methyl]-4-hydroxy-5,6-dihydro-2H-pyran-2-one]: the IC50 was found to be 53 nM.

For the compound `Cc1cc(C)n2nc(CC3=C(O)CC(CCc4ccc(C(C)C)c(F)c4)(C4CCCC4)OC3=O)nc2n1` (stereo not shown) [B(45), 6-cyclopentyl-3-[(5,7-dimethyl[1,2,4]triazolo[1,5-a]pyrimidin-2-yl)methyl]-6-[2-(3-fluoro-4-isopropylphenyl)ethyl]-4-hydroxy-5,6-dihydro-2H-pyran-2-one], the IC50 came out at 53 nM. For the compound `CCc1cc(CCC2(C3CCCC3)CC(=O)C(Cc3nc4nc(C)cc(C)n4n3)C(=O)O2)ccc1F` (stereo not shown) [B(46), 6-cyclopentyl-3-[(5,7-dimethyl[1,2,4]triazolo[1,5-a]pyrimidin-2-yl)methyl]-6-[2-(3-ethyl-4-fluorophenyl)ethyl]dihydro-2H-pyran-2,4(3H)-dione], the IC50 was determined as 20 nM. Still for that read-out and setting: then `COc1ccc(CCC2(C3CCCC3)CC(=O)C(Cc3nccs3)C(=O)O2)cc1Cl` (stereo not shown) [B(47), 6-[2-(3-chloro-4-methoxyphenyl)ethyl]-6-cyclopentyl-3-(1,3-thiazol-2-ylmethyl)dihydro-2H-pyran-2,4(3H)-dione], with 800 nM; and `COc1ccc(CCC2(C3CCCC3)CC(=O)C(Cc3nccn3C)C(=O)O2)cc1Cl` (stereo not shown) [B(48), 6-[2-(3-chloro-4-methoxyphenyl)ethyl]-6-cyclopentyl-3-[(1-methyl-1H-imidazol-2-yl)methyl]dihydro-2H-pyran-2,4(3H)-dione], with 700 nM.

Turning to `Cc1cc(C)n2nc(CC3C(=O)CC(CCc4cccc(C(C)C)c4)(C4CCCC4)OC3=O)nc2n1` (stereo not shown) [B(49), 6-cyclopentyl-3-[(5,7-dimethyl[1,2,4]triazolo[1,5-a]pyrimidin-2-yl)methyl]-6-[2-(3-isopropylphenyl)ethyl]dihydro-2H-pyran-2,4(3H)-dione], the IC50 was found to be 10 nM. For the compound `Cc1cc(C)n2nc(CC3C(=O)CC(CCc4ccc(C(C)C)cc4)(C4CCCC4)OC3=O)nc2n1` (stereo not shown) [B(50), 6-cyclopentyl-3-[(5,7-dimethyl[1,2,4]triazolo[1,5-a]pyrimidin-2-yl)methyl]-6-[2-(4-isopropylphenyl)ethyl]dihydro-2H-pyran-2,4(3H)-dione], the IC50 was found to be 90 nM. On the same count and under the same terms, then `Cc1cc(C)n2nc(CC3C(=O)CC(CCc4cccc(Cl)c4)(C4CCCC4)OC3=O)nc2n1` (stereo not shown) [B(51), 6-[2-(3-chlorophenyl)ethyl]-6-cyclopentyl-3-[(5,7-dimethyl[1,2,4]triazolo[1,5-a]pyrimidin-2-yl)methyl]dihydro-2H-pyran-2,4(3H)-dione], with 72 nM. For `COc1cc(OC)c(CCC2(C3CCCC3)CC(O)=C(Cc3nc4nc(C)cc(C)n4n3)C(=O)O2)cc1Cl` (stereo not shown) [B(52), 6-[2-(5-chloro-2,4-dimethoxyphenyl)ethyl]-6-cyclopentyl-3-[(5,7-dimethyl[1,2,4]triazolo[1,5-a]pyrimidin-2-yl)methyl]dihydro-2H-pyran-2,4(3H)-dione], the IC50 came out at 170 nM.
